# Experimental data from US6043283A, “Tyramine compounds and their neuronal effects” (priority 1997, dated 2000).
# Entries after “also recorded” stand apart in the source; their conditions may differ. Structures can show the parent of a compound that is named as a salt. Where two headings read alike, the source gives them in different places.
# Columns and labels:
# [1] = test system: Aβ1-42-stimulated microglia; assay type: cell-based, rat
# Source text: (§1) Briefly, hippocampal cells obtained from embryonic stage 18 rat fetuses were dispersed mechanically in the presence of 0.125% trypsin and plated onto poly-L-lysine coated glass coverslips in 24 well plates at 250,000 cells per well (resulting in adhering cell densities of about 1250 cells per mm^2) in chemically-defined N2 culture media containing 5% fetal bovine serum. Gradual reduction of serum began on day 10 in vitro with daily 1:1 volume replacements with chemically-defined media, until a final concentration of 0.6% serum was achieved. […] In order to eliminate microglia, cultures were exposed to saporin (sap; a ribosome-inactivating protein; Davis and Wiley, 1989) coupled to acetylated LDL (ac-LDL) at a concentration of 10 μg/ml for 12 hours. […] Cultures depleted of microglia were then exposed to test substances in the presence or absence of exogenous microglia (100,000 cells per culture). […] Controls included cultures without saporin-treatment, cultures without test substances, and cultures with test substances but lacking microglia.
# (§2) On day 14 of culture, immediately following saporin treatment, test substances were added to the hippocampal cultures. Synthetic peptide were supplied as 1 mM stock solutions in 0.1 M phosphate buffered saline, pH 7.2, stored for at least 1 week at 4° C. before use. After 72 hours incubation, the cultures were fixed in 4% paraformaldehyde at room temperature for 18 hours and immuno-stained by overnight incubation with a mixture of anti-neurofilament antibodies (NF; SMI-311, 1:600; Stemberger Monoclonals, Inc.) plus anti-MAP-2 (Boehringer Mannheim, 184959; 1:600) at 4° C. in the presence of 2% horse serum and 0.3% triton X-100 to delineate both neuronal cell bodies and neurites. Astroglia were visualized using sheep anti-glial fibrillary acidic protein (GFAP, Sigma) as described by Giulian et al., 1989. Finally, to label all cell nuclei, the coverslips were exposed to 0.01% bisbenzimide (Hoechst 33258; Sigma) in PBS, pH 6.9, and rinsed in distilled water and mounted in glycerin. Immuno-labeled cells per field and nuclei per field were scored at 200X magnification using fluorescence microscopy. Data were expressed as % mean survival expressed in terms of parallel untreated control cultures after scoring at least 20 randomly selected fields for each of 3 coverslips.
# [2] = test system: human microglia stimulated with S5; assay type: cell-based;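 further: drugs applied at 10 µM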
# [3] = test system: NTox released by Aβ1-42-stimulated microglia (neuron killing); experiment: cells; assay type: cell-based, rat; conditions: for neuroprotective activity (structure/function): Example 14
# Source text: . Briefly, hippocampal cells obtained from embryonic stage 18 rat fetuses were dispersed mechanically in the presence of 0.125% trypsin and plated onto poly-L-lysine coated glass coverslips in 24 well plates at 250,000 cells per well (resulting in adhering cell densities of about 1250 cells per mm^2) in chemically-defined N2 culture media containing 5% fetal bovine serum. Gradual reduction of serum began on day 10 in vitro with daily 1:1 volume replacements with chemically-defined media, until a final concentration of 0.6% serum was achieved. […]; see FIG. 18). In order to eliminate microglia, cultures were exposed to saporin (sap; a ribosome-inactivating protein; Davis and Wiley, 1989) coupled to acetylated LDL (ac-LDL) at a concentration of 10 μg/ml for 12 hours. […] Cultures depleted of microglia were then exposed to test substances in the presence or absence of exogenous microglia (100,000 cells per culture). […]. Controls included cultures without saporin-treatment, cultures without test substances, and cultures with test substances but lacking microglia.
# as §2
# The procedures described above and by Giulian et al, 1996, provided for the identification of tyramine compounds as therapeutic agents for neurodegenerative diseases or disorders including, for example, Alzheimer's disease. Cells from the brain of fetal rats were grown in tissue cultures. Microglial populations within the cultures were controlled following the method described in Example 5 above. Known amounts of Aβ peptides coupled to microspheres were added to the culture. The Aβ spheres stimulated the microglia to release NTox, which in turn destroyed the neurons. The neurons in the cultures were monitored for survival by immuno-staining.
# Generally, drug assays involve the addition of known concentrations of a test agent over a range of concentrations. After 72 hours, the experiment is stopped and the neurons are identified by immuno-staining. The data is expressed as % neuronal survival […]. Dose response curves are then used to estimate Effective Dose50 % (ED50) of neuroprotective agents. […].
# In this experiment, about 65% of the neurons were destroyed by the Aβ-stimulated microglia. […] Other tyramine compounds, including tyrosine esters, were neuroprotective (FIG. 30).
# Following the methods described herein, numerous compounds were examined to determine their neuroprotective activity. […]
# NMDA receptor = experiment: whole cell current elicited by NMDA in Xenopus oocytes injected with NMDA R1 and R2 subunit cRNAs; assay type: cell-based; conditions: for effect on current elicited by NMDA: FIG. 34
# Source text: FIG. 34 is a graph shorting the % maximal current peak elicited by NMDA, octopamine and tyramine compounds in the presence of a given NMDA concentration. […].
# The precise mechanism of NTox that leads to the destruction of neurons is only partially characterized. Based upon extensive testing with receptor antagonists, it has been discovered that two classes of neurotransmitter receptors are involved--the n-methyl D-aspartate (NMDA) class of […] receptors and the Muscarinic (M receptors) class of cholinergic receptors. […] […]. Further study to determine if tyramine compounds act upon the NMDA receptor itself involved expression of the NMDA receptor complex in Xenopus oocytes and measurement of ionic fluxes across the oocyte membrane that are elicited by NMDA. […] […]. […] Thus, tyramine compounds appear to have several actions, one of which is upon the NMDA receptor.
# NTox = experiment: protection of neurons against isolated NTox applied directly; assay type: cell-based; conditions: isolated NTox; FIGS. 13, 32
# Source text: FIG. 32 is a graph showing the specificity of tyramine compounds to NTox. […].
# Initial studies to characterize the neuroprotective effect of tyramine compounds employed microglia-neuron co-culture assays in the presence of Aβ or isolated senile plaques. Inhibition of neuron killing in […]--inhibition of microglial activation by Aβ or plaques; inhibition of NTox production and release by microglia; or inhibition of action of NTox upon neurons. […] Effective doses in the low nmolar range show the tyramine compounds to be very potent agents compared with low μmolar range of other neuroprotective drugs under development for neurological disorders.
# hippocampal neurons = assay type: cell-based, rat; conditions: absence of microglia
# Source text: as §1, §2
# [4] = test system: rat microglia / hippocampal neurons; conditions: rat microglia, mostly 1 μmole/l
# [5] = test system: plaque-stimulated microglia; experiment: blocking of plaque-induced microglial neurotoxicity; assay type: cell-based, rat; conditions: FIG. 16C
# rat microglia = experiment: binding of Aβ-coupled microspheres to microglia; conditions: 4 hours at 37° C. (72 h in FIG. 23)
# [6] = assay type: physicochemical; conditions: chemically defined culture media, 37° C.; Table 2
# Source text: Solubility of peptides is described for chemicallydefined culture media a […]
# human microglia = experiment: induction of neuron-killing human microglia; assay type: cell-based; conditions: 1 μmole/liter synthetic peptides
# microglia = experiment: inhibition of SpheresAβ1-42 binding to microglia; set-up: species or system rat; conditions: 10 μmoles/l, 4 hours, 37° C.
# Experimental: Spheresmal-BSA (which bind to scavenger receptors) or SpheresAβ1-42 were incubated with microglia for 4 hours following pre-treatment of cells with trypsin (5000 units/ml at 37° C. for 60 min followed by inactivation with soybean trypsin inhibitor), with heparinase (heparin lyase EC 4.2.2.7; two consecutive treatments each of 0.01 units/ml for 60 min), or with chondroitinase ABC (chondroitin ABC lyase EC 4.3.3.4; two consecutive treatments each of 0.02 units/ml for 60 min). […] Microglia mixed with hippocampal neurons were treated with combinations of β-D-xyloside (1 mm), heparinase (0.02 units/ml), or chondroitinase (0.04 units/ml) and then exposed to plaques.
# Each well then received 250,000 SpheresAβ1-42 or Spheresmal-BSA in the presence or absence of Aβ peptides, GAGs, or scavenger receptor ligands. Binding assays were carried out at 37° C. for 4 hours after which coverslips were dipped 10 times in phosphate buffer and fixed with 4% buffered paraformaldehyde. Microsphere adherence to cells was scored at 200 magnification with phase/fluorescence microscopy. Data, expressed as % inhibition of sphere binding, was calculated from total number of spheres per field noted for control cultures receiving spheres only. Values are based upon at least 3 coverslips from 2 independent experiments. […] Washed spheres were resuspended in 0.2 M borate buffer (pH 8.5) in the presence of 300 μg Aβ or 400 μg BSA in 6% DMSO. After overnight mixing at room temperature, the spheres were washed extensively and blocked by 1 M glycine (pH 8.0) for 30 minutes.
compound,measurement,setting,value
"CC(=N)NCCC[C@H](N)C(=O)O [L-NIO, L-N-5-(1-imino-ethyl)-ornithine hydrochloride]","drug blockade of neuron killing, rat microglia",[1]; hydrochloride,no reduction of microglia-mediated neuron killing; also recorded: No protective effects were observed
same,"drug blockade of neuron killing, human microglia",[2]; hydrochloride,no reduction of microglia-mediated neuron killing; also recorded: No protective effects were observed
N[C@@H](CCC(=O)N[C@@H](CS)C(=O)NCC(=O)O)C(=O)O [glutathione],"drug blockade of neuron killing, rat microglia",[1],no reduction of microglia-mediated neuron killing; also recorded: did not block microglial killing of neurons
same,"drug blockade of neuron killing, human microglia",[2],no reduction of microglia-mediated neuron killing; also recorded: did not block microglial killing of neurons
CC(C(O)c1ccc(O)cc1)N1CCC(Cc2ccccc2)CC1 (stereo not shown) [ifenprodil],"drug blockade of neuron killing, rat microglia",[1],prevented neuronal loss; also recorded: blocked neuron death
same,"drug blockade of neuron killing, human microglia",[2],blocked neuron death
NCC(O)c1ccc(O)cc1 (stereo not shown) [octopamine],neuroprotective activity (structure/function),[3],little or no neuroprotective activity
same,effect on current elicited by NMDA,NMDA receptor,does not alter the current measured
same,effect on current elicited by NMDA,NMDA receptor; listed as Octopamine,no effect
N[C@@H](Cc1ccc(O)cc1)C(=O)OCc1ccccc1 [tyrosine benzyl ester],neuroprotective activity (structure/function),[3],enhance neuroprotective effects
same,effect on current elicited by NMDA,NMDA receptor,inhibition of NMDA
CC(C)(C)OC(=O)[C@@H](N)Cc1ccc(O)cc1 [tyrosine t-butyl ester],neuroprotective effect,[3]; Aβ1-42-stimulated microglia,most potent neuroprotectant tested
same,neuroprotective activity (structure/function),[3],enhance neuroprotective effects
same,EC50,"[3]; Rattus norvegicus, Aβ-stimulated microglia, 72 h, FIG. 31, read-out: ED50 (neuroprotection)",2 nM
same,inhibition of killing action of NTox applied to neurons,NTox,killing action of NTox is inhibited
same,effect on NMDA-stimulated voltage change across oocyte membrane,NMDA receptor; 300 μM,blocked
same,effect on current elicited by NMDA,NMDA receptor,inhibition of NMDA
Aβ1-43: small Aβ peptide (as printed),direct neurotoxicity without microglia,hippocampal neurons,did not produce neurotoxicity
same,induction of neurotoxic microglia / neuron killing,[4],did not produce neurotoxicity
"Aβ13-20: Aβ peptide residues 13-20 (HHQKLVFF; Amyloid-beta protein 42; UniProt P05067 684-691, looked up, fragment)",IC50,"[1]; read-out: ED50 (blocking of Aβ1-42 induced neurotoxicity), FIG. 16B",250 nM
same,blocking of plaque-induced microglial toxicity by peptides,[5],blocked plaque-induced toxicity in vitro
"Aβ17-42: Aβ peptide residues 17-42 (LVFFAEDVGSNKGAIIGLMVGGVVIA; Amyloid-beta protein 42; UniProt P05067 688-713, looked up, fragment)",binding of peptide-coupled microspheres to microglia,rat microglia,neither binds to microglia nor elicits toxicity
same,Solubility,[6],very insoluble
catalase,"drug blockade of neuron killing, rat microglia",[1],no reduction of microglia-mediated neuron killing; also recorded: did not block microglial killing of neurons
same,"drug blockade of neuron killing, human microglia",[2],no reduction of microglia-mediated neuron killing; also recorded: did not block microglial killing of neurons
"rodent Aβ1-40: rodent Aβ1-40 (5Arg-Gly, 10Tyr-Phe, 13His-Arg) (DAEFGHDSGFEVRHQKLVFFAEDVGSNKGAIIGLMVGGVV; Amyloid-beta protein 40; UniProt P12023 672-711, looked up)",induction of neurotoxic human microglia,human microglia,inactive
same,binding of peptide-coupled microspheres to microglia,rat microglia,little cell binding
same,inhibition of SpheresAβ1-42 binding by peptides,microglia,unable to block
same,induction of neurotoxic microglia / neuron killing,[4],did not activate microglia
same,induction of neurotoxic microglia / neuron killing,[4]; listed as Aβ1-40rodent,neither
same,induction of neurotoxic microglia / neuron killing,[4]; listed as Rodent Aβ1-40,did not activate microglia
same,induction of neurotoxic microglia / neuron killing,[4]; listed as rodent form of Aβ1-40,inactive
vitamin E,"drug blockade of neuron killing, rat microglia",[1],no reduction of microglia-mediated neuron killing; also recorded: did not block microglial killing of neurons
same,"drug blockade of neuron killing, human microglia",[2],no reduction of microglia-mediated neuron killing; also recorded: did not block microglial killing of neurons
